{
  "source": "patent US20230192878A1",
  "about": "“METHODS, THERAPIES AND USES FOR TREATING CANCER” (PFIZER INC., priority 2020, published 2023)",
  "key": {"Raji": {"tested_on": "Raji", "experiment": "Cell surface BCMA expression after GSI, concentration series, lymphoma cells", "type": "cell-based", "details": "24 hours, ± SD", "description": "Lymphoma cells (Raji cell line) were seeded in a 96-well U bottom plate at 40,000 cells/well. Cells were incubated for 24 hours in the presence of GSI diluted in RPMI medium (0.1% DMSO). The following concentrations of the GSI were tested: 1000 nM, 500 nM, 100 nM, 50 nM, 25 nM, 10 nM, 5 nM, 2.5 nM, 1 nM, 0.1 nM, 0.01 nM. 24 hours later cells were collected and washed with PBS+2% FBS, followed by staining with ZombieNIR Viability Dye (Biolegend) at 1 in 500 dilution in PBS at room temperature for 20 minutes. Next, cells were washed with PBS+2% FBS and stained with anti-BCMA PE-labelled antibody (Biolegend) diluted in PBS+2% FBS for 30 minutes at 4° C. Cells were acquired on BD Flow Cytometer and analyzed using FlowJo flow cytometry analysis software. Dead cells were removed from the analysis by gating on ZombieNIR negative population. BCMA MFI was plotted against GSI concentration to establish EC50."}, "MM.1S-PD-L1": {"tested_on": "MM.1S-PD-L1", "experiment": "Subcutaneous MM.1S-PD-L1 multiple myeloma mouse model", "type": "in vivo", "details": "alone or +anti-PD-1 5 mg/kg, dosing from Day 21", "description": "MM.1S multiple myeloma cells were engineered to express PD-L1 and are referred to as MM.1S-PD-L1. Pre-activated and expanded T cells (20×10^6) were administered on Day 19 after MM.1S-PDL1 tumor cell inoculation subcutaneously (SC). BCMAxCD3 bispecific (0.3 or 1 mg/kg) or negative bispecific (1 mg/kg) was administered IV on Day 21 and dosed Q7Dx3. Anti-PD-1 mAb was administered at 5 mg/kg intraperitoneally (IP) twice a week starting on Day 21. Tumor measurements were recorded 2 to 3 times a week using digital calipers. N (at study start) is 5-12 animals per group."}, "Raji-luc": {"tested_on": "Raji-luc", "experiment": "BCMAxCD3 bispecific mediated cell killing of lymphoma cells with human T cells, with or without GSI", "type": "cell-based", "details": "60 hours, with or without 1 μM GSI, ± SD", "description": "CD3^+ T cells from PBMCs (Stem Cell Technologies) were negatively selected using EasySep Human T cell enrichment kit (Stem Cell Technologies). 10,000 target lymphoma cells expressing luciferase (Raji-luc) were treated with 1 μM GSI. After 24 hours, cells were seeded with 50,000 CD3^+ pan T cells in a clear 96-well V-bottom plate. Cells were further treated with a range of BCMAxCD3 bispecific concentrations with or without 1 μM GSI. 60 hours after treatment, luciferase activity in treated cells was analyzed using NeoLite reagent kit (Perkin Elmer) and acquired on VictorX multimode plate reader (Perkin Elmer). Cell viability was calculated by dividing luciferase activity of treated cells over luciferase activity of untreated control (no BCMAxCD3 bispecific antibody added)."}, "CD8+ T cells": {"tested_on": "CD8+ T cells", "experiment": "PD-1 induction on CD8+ T cells co-cultured with MM.1S-luc cells", "type": "cell-based, human", "details": "1 nM BCMAxCD3 bispecific, ± SD", "description": "CD3+ T cells from PBMCs (Stem Cell Technologies) were negatively selected using EasySep Human T cell enrichment kit (Stem Cell Technologies). 10,000 target Multiple Myeloma MM.1S cells expressing luciferase (MM.1S-luc) were seeded with 50,000 CD3^+ pan T cells in a clear 96-well V-bottom plate. Cells were treated with 1 nM BCMAxCD3 bispecific antibody and PD-1 expression was analyzed at 3, 24, 48 and 72 hours after addition of the BCMAxCD3 bispecific. At the specified time points, cells were collected from the wells, washed with PBS+2% FBS, and stained with ZombieNIR Viability dye (Biolegend) in PBS for 20 minutes at room temperature, followed by staining with antibodies against human CD8 and PD-1 (Biolegend). Samples were analyzed using FlowJo flow cytometry analysis software. Dead cells were removed from analysis by gating on ZombieNIR negative population. Samples were further gated on CD8^+ positive population. Percentage of PD-1+ cells is expressed as PD-1 positive cells within the CD8+ population."}, "MM.1S-Luc-PD-L1": {"tested_on": "MM.1S-Luc-PD-L1", "experiment": "Orthotopic MM.1S-Luc-PD-L1 multiple myeloma mouse model", "type": "in vivo, NSG mice", "details": "bispecific 10 μg/kg IV once (day 21), anti-PD-1 5 mg/kg IP twice a week", "description": "MM.1 S-Luc multiple myeloma cells were engineered to express PD-L1 and are referred to as MM.1S-Luc-PD-L1. MM.1S-Luc-PD-L1 cells were prepared as a single cell suspension of 5×10^6 cells for intravenous (IV) inoculation into NSG mice.\nTumor growth was monitored by luminescent imaging by intraperitoneal (IP) injection of luciferin solution in DPBS and imaged using Perkin Elmer IVIS Spectrum camera system. Animals were administered 2×10^7 expanded human T cells IV 19 days after tumor cell inoculation. Two days following T cell administration, a single dose of the BCMAxCD3 bispecific (10 μg/kg) was administered as a bolus IV injection. Anti-PD-1 antibody was administered twice a week as a bolus IP injection at 5 mg/kg for a total of 6 injections.\nTumor growth was monitored via imaging measurements collected twice weekly. Mice were imaged using the Perkin Elmer IVIS Spectrum camera system with automatic parameter determination and a maximum imaging time of 3 minutes. Living Image software was used to collect the data. Regions of Interest (ROIs) were drawn around the entire body of the mouse, excluding as much as possible of the tail. Background flux, as measured on the anesthesia manifold, is subtracted from each ROI. Tumor measurements are expressed as total flux expressed in photons/sec (p/s). Study was terminated at day 40 post tumor inoculation."}},
  "data": [
    {"compound": "CCC[C@H](N[C@H]1CCc2cc(F)cc(F)c2C1)C(=O)Nc1cn(C(C)(C)CNCC(C)(C)C)cn1", "note": "[GSI, nirogacestat]", "values": [
      {"measurement": "BCMA MFI", "setting": "Raji; GSI 0.01 nM", "value": "142.5 ± 0.8"},
      {"measurement": "BCMA MFI", "setting": "Raji; GSI 0.10 nM", "value": "147.5 ± 20.6"},
      {"measurement": "BCMA MFI", "setting": "Raji; GSI 1.00 nM", "value": "398 ± 34"},
      {"measurement": "BCMA MFI", "setting": "Raji; GSI 2.50 nM", "value": "469 ± 31.2"},
      {"measurement": "BCMA MFI", "setting": "Raji; GSI 5.00 nM", "value": "484 ± 43.9"},
      {"measurement": "BCMA MFI", "setting": "Raji; GSI 10.00 nM", "value": "515.5 ± 47.4"},
      {"measurement": "BCMA MFI", "setting": "Raji; GSI 25.00 nM", "value": "532 ± 42.5"},
      {"measurement": "BCMA MFI", "setting": "Raji; GSI 50.00 nM", "value": "535 ± 65.1"},
      {"measurement": "BCMA MFI", "setting": "Raji; GSI 100.00 nM", "value": "498.5 ± 20.6"},
      {"measurement": "BCMA MFI", "setting": "Raji; GSI 500.00 nM", "value": "568.5 ± 50.3"},
      {"measurement": "BCMA MFI", "setting": "Raji; GSI 1000.00 nM", "value": "534.5 ± 67.2"}
    ]},
    {"compound": "PF-06863135: heterodimeric humanized full-length bispecific antibody with one BCMA binding arm and one CD3 binding arm", "values": [
      {"measurement": "Tumor Volume ± SEM", "setting": "MM.1S-PD-L1; day 14 post tumor cell inoculation, BCMA × CD3 bispecific 0.3 mg/kg", "value": "34.4 ± 9.5", "unit": "mm^3"},
      {"measurement": "Tumor Volume ± SEM", "setting": "MM.1S-PD-L1; day 14 post tumor cell inoculation, BCMA × CD3 bispecific 1 mg/kg", "value": "26.4 ± 7.5", "unit": "mm^3"},
      {"measurement": "Tumor Volume ± SEM", "setting": "MM.1S-PD-L1; day 18 post tumor cell inoculation, BCMA × CD3 bispecific 0.3 mg/kg", "value": "91.6 ± 18", "unit": "mm^3"},
      {"measurement": "Tumor Volume ± SEM", "setting": "MM.1S-PD-L1; day 18 post tumor cell inoculation, BCMA × CD3 bispecific 1 mg/kg", "value": "92 ± 17.1", "unit": "mm^3"},
      {"measurement": "Tumor Volume ± SEM", "setting": "MM.1S-PD-L1; day 20 post tumor cell inoculation, BCMA × CD3 bispecific 0.3 mg/kg", "value": "122.5 ± 20.7", "unit": "mm^3"},
      {"measurement": "Tumor Volume ± SEM", "setting": "MM.1S-PD-L1; day 20 post tumor cell inoculation, BCMA × CD3 bispecific 1 mg/kg", "value": "130.7 ± 24.6", "unit": "mm^3"},
      {"measurement": "Tumor Volume ± SEM", "setting": "MM.1S-PD-L1; day 25 post tumor cell inoculation, BCMA × CD3 bispecific 0.3 mg/kg", "value": "403 ± 59", "unit": "mm^3"},
      {"measurement": "Tumor Volume ± SEM", "setting": "MM.1S-PD-L1; day 25 post tumor cell inoculation, BCMA × CD3 bispecific 1 mg/kg", "value": "601.1 ± 70^ mm^3"},
      {"measurement": "Tumor Volume ± SEM", "setting": "MM.1S-PD-L1; day 28 post tumor cell inoculation, BCMA × CD3 bispecific 0.3 mg/kg", "value": "403.3 ± 67.6", "unit": "mm^3"},
      {"measurement": "Tumor Volume ± SEM", "setting": "MM.1S-PD-L1; day 28 post tumor cell inoculation, BCMA × CD3 bispecific 1 mg/kg", "value": "482.9 ± 32.6", "unit": "mm^3"},
      {"measurement": "Tumor Volume ± SEM", "setting": "MM.1S-PD-L1; day 32 post tumor cell inoculation, BCMA × CD3 bispecific 0.3 mg/kg", "value": "603.6 ± 151.6", "unit": "mm^3"},
      {"measurement": "Tumor Volume ± SEM", "setting": "MM.1S-PD-L1; day 32 post tumor cell inoculation, BCMA × CD3 bispecific 1 mg/kg", "value": "410.5 ± 82.7", "unit": "mm^3"},
      {"measurement": "Tumor Volume ± SEM", "setting": "MM.1S-PD-L1; day 35 post tumor cell inoculation, BCMA × CD3 bispecific 0.3 mg/kg", "value": "835.1 ± 77.2", "unit": "mm^3"},
      {"measurement": "Tumor Volume ± SEM", "setting": "MM.1S-PD-L1; day 35 post tumor cell inoculation, BCMA × CD3 bispecific 1 mg/kg", "value": "627.9 ± 111.8", "unit": "mm^3"},
      {"measurement": "Tumor Volume ± SEM", "setting": "MM.1S-PD-L1; day 39 post tumor cell inoculation, BCMA × CD3 bispecific 0.3 mg/kg", "value": "1569.3 ± 151.8", "unit": "mm^3"},
      {"measurement": "Tumor Volume ± SEM", "setting": "MM.1S-PD-L1; day 39 post tumor cell inoculation, BCMA × CD3 bispecific 1 mg/kg", "value": "1436.8 ± 276.4", "unit": "mm^3"},
      {"measurement": "Raji Cell Viability (% control)", "setting": "Raji-luc; BCMAxCD3 0.00064 nM", "value": "94 ± 3.7", "unit": "% control"},
      {"measurement": "Raji Cell Viability (% control)", "setting": "Raji-luc; BCMAxCD3 0.0032 nM", "value": "107 ± 4.5", "unit": "% control"},
      {"measurement": "Raji Cell Viability (% control)", "setting": "Raji-luc; BCMAxCD3 0.016 nM", "value": "105.8 ± 10.2", "unit": "% control"},
      {"measurement": "Raji Cell Viability (% control)", "setting": "Raji-luc; BCMAxCD3 0.08 nM", "value": "89.3 ± 5.7", "unit": "% control"},
      {"measurement": "Raji Cell Viability (% control)", "setting": "Raji-luc; BCMAxCD3 0.4 nM", "value": "88.1 ± 18.4", "unit": "% control"},
      {"measurement": "Raji Cell Viability (% control)", "setting": "Raji-luc; BCMAxCD3 2 nM", "value": "71 ± 9.7", "unit": "% control"},
      {"measurement": "Raji Cell Viability (% control)", "setting": "Raji-luc; BCMAxCD3 10 nM", "value": "82.1 ± 9.7", "unit": "% control"},
      {"measurement": "Raji Cell Viability (% control)", "setting": "Raji-luc; BCMAxCD3 50 nM", "value": "80 ± 13.2", "unit": "% control"},
      {"measurement": "% PD-1 (of CD8+ T cells)", "setting": "CD8+ T cells; 3 hours", "value": "12.8 ± 0.6", "unit": "%"},
      {"measurement": "% PD-1 (of CD8+ T cells)", "setting": "CD8+ T cells; 24 hours", "value": "18.9 ± 1.2", "unit": "%"},
      {"measurement": "% PD-1 (of CD8+ T cells)", "setting": "CD8+ T cells; 48 hours", "value": "69.9 ± 3.1", "unit": "%"},
      {"measurement": "% PD-1 (of CD8+ T cells)", "setting": "CD8+ T cells; 72 hours", "value": "69.9 ± 3.1", "unit": "%"},
      {"measurement": "Tumor measurements expressed as total flux", "setting": "MM.1S-Luc-PD-L1; day 15 post tumor cell inoculation", "value": "1.513 × 10^7 p/s"},
      {"measurement": "Tumor measurements expressed as total flux", "setting": "MM.1S-Luc-PD-L1; day 18 post tumor cell inoculation", "value": "8.343 × 10^7 p/s"},
      {"measurement": "Tumor measurements expressed as total flux", "setting": "MM.1S-Luc-PD-L1; day 20 post tumor cell inoculation", "value": "1.788 × 10^8 p/s"},
      {"measurement": "Tumor measurements expressed as total flux", "setting": "MM.1S-Luc-PD-L1; day 25 post tumor cell inoculation", "value": "2.2729 × 10^7 p/s"},
      {"measurement": "Tumor measurements expressed as total flux", "setting": "MM.1S-Luc-PD-L1; day 28 post tumor cell inoculation", "value": "7.082 × 10^7 p/s"},
      {"measurement": "Tumor measurements expressed as total flux", "setting": "MM.1S-Luc-PD-L1; day 32 post tumor cell inoculation", "value": "7.076 × 10^7 p/s"}
    ]}
  ]
}
